Results on 46 compounds are retold here after patent US9296697B2, “Hetaryl-substituted guanidine compounds and use thereof as binding partners for 5-HT5-receptors” (Abbott Laboratories, priority 2005, dated 2016).

What is called Ki is the equilibrium dissociation constant of an inhibitor or competing ligand from its target.

Where a name gives a salt, the structure may show the parent alone.

T1 sequence (P47898 whole entry): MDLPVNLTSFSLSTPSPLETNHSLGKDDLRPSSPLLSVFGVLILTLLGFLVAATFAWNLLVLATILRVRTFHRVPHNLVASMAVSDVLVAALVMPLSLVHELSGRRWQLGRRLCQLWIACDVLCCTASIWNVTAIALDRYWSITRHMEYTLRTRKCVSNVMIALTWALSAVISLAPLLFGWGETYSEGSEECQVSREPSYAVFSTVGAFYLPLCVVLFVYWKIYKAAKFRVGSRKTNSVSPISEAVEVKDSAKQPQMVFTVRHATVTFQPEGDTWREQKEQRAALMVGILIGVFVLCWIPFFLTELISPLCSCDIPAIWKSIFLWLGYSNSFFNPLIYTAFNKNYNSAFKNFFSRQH

This assay has as its target T1, h5-HT5A receptor (Homo sapiens, UniProt P47898).
T1 construct: expressed in transfected cells; membranes used
The assay is described as follows: h5-HT5A [3H]5-CT binding assay. The following applies: affinity for 5-HT5A; membranes of HEK293 cells expressing the h5-HT5A receptor gene, 2.5 nM [3H]5-CT. Here is the method:
h5-HT5A [^3H]5-CT Binding Assay
Membranes of HEK293 cells which permanently express the h5-HT5A receptor gene were incubated in 100 mM tris-HCl buffer (pH 7.7) containing 1 mM EDTA, in the presence of 2.5 nM [^3H]5-CT (total volume 600 μL). The total binding is defined as the binding that is observed when the membranes are incubated in the presence of only the radioligand. The inhibition induced by the compound is determined by incubation of cell membranes in the presence of the radioligand and various concentrations of the compound of interest. Nonspecific binding is defined as the [^3H]5-CT binding obtained by incubation of the membranes, the same as for the total binding, but in the presence of 10 μM methiothepine. Following incubation for 75 min at 30° C., the membrane suspension was filtered through a GF/B-Filter coated with 0.03% PEI, using a Skatron® harvesting system. The residual radioactivity in the filter was quantified by liquid scintillation counting.
Various concentrations of the test substances were used in both assays, and the Ki or IC50 values were determined.
Compound `COc1cccc(OC)c1CNC(=N)Nc1cnc2ccccc2c1` [Example 17, N-(2,6-Dimethoxybenzyl)-N′-quinolin-3-yl-guanidine acetate] came in with an inhibitory constant (Ki) of less than 100 nM.

`CCOc1ccccc1CNC(=N)Nc1cccc(Br)n1` [Example 75, N-(6-Bromopyridin-2-yl)-N′-(2-ethoxybenzyl)guanidine acetate] yielded a Ki of less than 100 nM.

In turn, `COc1ccccc1CNC(=N)Nc1cccc(C)n1` [Example 8, N-(2-Methoxybenzyl)-N′-(6-methylpyridin-2-yl)guanidine] registered an inhibitory constant (Ki) of less than 100 nM.

`COc1ccccc1CNC(=N)Nc1ccc(-c2ccccc2)cn1` [Example 86, N-(2-Methoxybenzyl)-N′-(5-phenylpyridin-2-yl)guanidine] gave a Ki of less than 100 nM.

`CC(C)Oc1ccccc1CNC(=N)Nc1cccc(C#N)n1` [Example 80, N-(6-Cyanopyridin-2-yl)-N′-(2-isopropoxybenzyl)guanidine acetate] registered a Ki of less than 100 nM.

With `COc1cccc(Cl)c1CNC(=N)Nc1ncccc1C` [Example 31, N-(2-Chloro-6-methoxybenzyl)-N′-(3-methylpyridin-2-yl)guanidine], the Ki was less than 100 nM.

In turn, `N#Cc1cccc(NC(=N)NCc2c(Cl)cccc2Oc2ccccc2)n1` [Example 82, N-(2-Chloro-6-phenoxybenzyl)-N′-(6-cyanopyridin-2-yl)guanidine acetate] showed a Ki of less than 100 nM.

In turn, `COc1ccccc1CNC(=N)Nc1ccc(C)cn1` [Example 6, N-(2-methoxybenzyl)-N′-(5-methylpyridin-2-yl)guanidine acetate] had a Ki of less than 100 nM.

`COc1cccc(F)c1CNC(=N)Nc1ccc(I)cn1` [Example 92, N-(2-Fluoro-6-methoxybenzyl)-N′-(5-iodopyridin-2-yl)guanidine acetate] returned an inhibitory constant (Ki) of less than 100 nM.

As to `COc1cccc(OC)c1CNC(=N)Nc1cc2ccccc2cn1` [Example 39, N-(2,6-Dimethoxybenzyl)-N′-isoquinolin-3-ylguanidine], the Ki was less than 100 nM.

Regarding `COc1cccc(OC)c1CNC(=N)Nc1cccc(-c2ccccc2)n1` [Example 53, N-(2,6-Dimethoxybenzyl)-N′-(6-phenylpyridin-2-yl)guanidine acetate], the Ki was less than 100 nM.

In turn, `COc1ccccc1CNC(=N)Nc1cccc(-c2ccc(OC(F)(F)F)cc2)n1` [Example 48, N-(2-Methoxybenzyl)-N′-{6-[4-(trifluoromethoxy)phenyl]pyridin-2-yl}guanidine] yielded a Ki of less than 10000 nM.

As to `COc1cccc(OC)c1CNC(=N)Nc1cc(Br)ccn1` [Example 44, N-(4-Bromopyridin-2-yl)-N′-(2,6-dimethoxybenzyl)guanidine], the Ki was less than 100 nM.

Take `COc1ccccc1CNC(=N)Nc1ccc(C#N)cn1` [Example 90, N-(5-Cyanopyridin-2-yl)-N′-(2-methoxybenzyl)guanidine]: the Ki was less than 100 nM.

As to `COc1ccccc1CNC(=N)Nc1cccc(Br)n1` [Example 42, N-(6-Bromopyridin-2-yl)-N′-(2-methoxybenzyl)guanidine], the inhibition constant (Ki) was less than 100 nM.

On to `COc1ccccc1CNC(=N)Nc1cnc2ccccc2c1` [Example 16, N-(2-Methoxybenzyl)-N′-quinolin-3-yl-guanidine acetate], for which the Ki was less than 10000 nM.

Turning to `Cc1ccc(NC(=N)NCc2ccccc2OC(C)C)nc1` [Example 23, N-(2-Isopropoxybenzyl)-N′-(5-methylpyridin-2-yl)guanidine acetate], the Ki is less than 100 nM.

In turn, `COc1cccc(C)c1CNC(=N)Nc1ccc(I)cn1` [Example 93, N-(5-Iodopyridin-2-yl)-N′-(2-methoxy-6-methylbenzyl)guanidine acetate] came in with a Ki of less than 100 nM.

With `COc1ccccc1CN=C(N)Nc1ccc(I)cn1` [Example 4, N-(5-Iodopyridin-2-yl)-N″-(2-methoxybenzyl)guanidine], the Ki was less than 100 nM.

For `COc1cccc(Cl)c1CNC(=N)Nc1ccc(C#N)cn1` [Example 95, N-(2-Chloro-6-methoxybenzyl)-N′-(5-cyanopyridin-2-yl)guanidine acetate], the Ki was less than 100 nM.

Turning to `COc1cccc(OC)c1CNC(=N)Nc1ccc(C)cn1` [Example 7, N-(2,6-dimethoxybenzyl)-N′-(5-methylpyridin-2-yl)guanidine], the Ki was less than 100 nM.

For the compound `COc1cccc(OC)c1CNC(=N)Nc1ncccc1Br` [Example 46, N-(3-Bromopyridin-2-yl)-N′-(2,6-dimethoxybenzyl)guanidine acetate], the Ki was less than 100 nM.

In turn, `Cc1ccc(NC(=N)NCc2ccccc2Cl)nc1` [Example 21, N-(2-Chlorobenzyl)-N′-(5-methylpyridin-2-yl)guanidine] had a Ki of less than 300 nM.

The compound `CCOc1ccccc1CNC(=N)Nc1cccc(C#N)n1` [Example 81, N-(6-Cyanopyridin-2-yl)-N′-(2-ethoxybenzyl)guanidine acetate] registered a Ki of less than 100 nM.

With `COc1ccccc1CNC(=N)Nc1ncccc1-c1ccc(F)cc1` [Example 63, N-[3-(4-Fluorophenyl)pyridin-2-yl]-N′-(2-methoxybenzyl)guanidine acetate], the Ki was less than 10000 nM.

`COc1ccccc1CNC(=N)Nc1ncccn1` [Example 36, N-(2-Methoxybenzyl)-N′-pyrimidin-2-yl-guanidine acetate] returned a Ki of less than 10000 nM.

`COc1ccccc1CNC(=N)Nc1ccccn1` [Example 1, N-(2-methoxybenzyl)-N′-pyridin-2-yl-guanidine acetate]: the Ki was less than 100 nM.

Take `COc1cccc(C)c1CNC(=N)Nc1cccc(Br)n1` [Example 71, N-(6-Bromopyridin-2-yl)-N′-(2-methoxy-6-methylbenzyl)guanidine]: the inhibitory constant (Ki) was less than 100 nM.

Take `COc1ccccc1CNC(=N)Nc1ncccc1C` [Example 12, N-(2-Methoxybenzyl)-N′-(3-methylpyridin-2-yl)guanidine acetate]: the Ki was less than 100 nM.

With `CC(C)Oc1ccccc1CNC(=N)Nc1cccc(Br)n1` [Example 74, N-(6-Bromopyridin-2-yl)-N′-(2-isopropoxybenzyl)guanidine], the inhibition constant Ki is less than 100 nM.

As for `COc1cccc(OC)c1CNC(=N)Nc1ncccc1C#N` [Example 65, N-(3-Cyanopyridin-2-yl)-N′-(2,6-dimethoxybenzyl)guanidine acetate], the Ki is less than 10000 nM.

Compound `COc1cccc(OC)c1CNC(=N)Nc1cccc(Cc2ccccc2)n1` [Example 70, N-(6-Benzylpyridin-2-yl)-N′-(2,6-dimethoxybenzyl)guanidine acetate] returned a Ki of less than 100 nM.

For the compound `COc1cccc(C)c1CNC(=N)Nc1ncccc1C` [Example 33, N-(2-Methoxy-6-methylbenzyl)-N′-(3-methylpyridin-2-yl)guanidine], the Ki was less than 100 nM.

`COc1ccccc1CNC(=N)Nc1ccc(Cc2ccccc2)cn1` [Example 67, N-(5-Benzylpyridin-2-yl)-N′-(2-methoxybenzyl)guanidine acetate] returned a Ki of less than 100 nM.

On to `COc1ccccc1CNC(=N)Nc1cc(C#N)ccn1` [Example 66, N-(4-Cyanopyridin-2-yl)-N′-(2-methoxybenzyl)guanidine acetate], for which the Ki was less than 100 nM.

Compound `N#Cc1cccc(NC(=N)NCc2ccccc2OC(F)(F)F)n1` [Example 79, N-(6-Cyanopyridin-2-yl)-N′-[2-(trifluoromethoxy)benzyl]guanidine acetate] gave a Ki of less than 100 nM.

Compound `CCc1ccccc1CNC(=N)Nc1ccc(C)cn1` [Example 25, N-(2-Ethylbenzyl)-N′-(5-methylpyridin-2-yl)guanidine] gave a Ki of less than 300 nM.

Consider `Cc1ccc(NC(=N)NCc2c(Cl)cccc2Oc2ccccc2)nc1` [Example 27, N-(2-Chloro-6-phenoxybenzyl)-N′-(5-methylpyridin-2-yl)guanidine acetate], for which the Ki was less than 100 nM.

`COc1cccc(F)c1CNC(=N)Nc1ccc(C)cn1` [Example 20, N-(2-Fluoro-6-methoxybenzyl)-N′-(5-methylpyridin-2-yl)guanidine acetate] gave a Ki of less than 100 nM.

Take `COc1cccc(C)c1CNC(=N)Nc1ccc(C#N)cn1` [Example 97, N-(5-Cyanopyridin-2-yl)-N′-(2-methoxy-6-methylbenzyl)guanidine acetate]: the Ki was less than 100 nM.

In turn, `N#Cc1ccc(NC(=N)NCc2ccccc2Cl)nc1` [Example 98, N-(2-Chlorobenzyl)-N′-(5-cyanopyridin-2-yl)guanidine acetate] gave an inhibitory constant (Ki) of less than 300 nM.

Compound `COc1cccc(OC)c1CNC(=N)Nc1ncccc1C` [Example 13, N-(2,6-Dimethoxybenzyl)-N′-(3-methylpyridin-2-yl)guanidine acetate] gave a Ki of less than 100 nM.

With `Cc1ccc(NC(=N)NCc2ccccc2Oc2ccccc2)nc1` [Example 28, N-(5-Methylpyridin-2-yl)-N′-(2-phenoxybenzyl)guanidine hydrochloride], the Ki is less than 100 nM.

For `COc1cccc(OC)c1CNC(=N)Nc1ccc(I)cn1` [Example 3, N-(2,6-dimethoxybenzyl)-N′-(5-iodopyridin-2-yl)guanidine], the Ki is less than 100 nM.

Regarding `COc1cccc(OC)c1CNC(=N)Nc1ncccc1-c1ccccc1` [Example 60, N-(2,6-Dimethoxybenzyl)-N′-(3-phenylpyridin-2-yl)guanidine acetate], the Ki was less than 300 nM.

Turning to `COc1cccc(OC)c1CNC(=N)Nc1cc(-c2ccc(F)cc2)ccn1` [Example 57, N-(2,6-Dimethoxybenzyl)-N′-[4-(4-fluorophenyl)pyridin-2-yl]guanidine acetate], the Ki was less than 100 nM.
